Like-named read-outs stand apart in the source and are kept apart here.
Legend:
TGF-β1 activation = assay: Macrophage activation assay (LPS-treated IC-21 macrophages plus fetal fibroblast conditioned media, TGF-β1 ELISA); format: cell-based, Mouse; conditions: for inhibition at 50 µM / inhibition at 100 µM: read-out: Inhibition of TGF-β1 Activation, % control (STD)
Procedure: Cultured macrophages were lifted from the dish with 3 ml of PBS. The PBS was balanced with 15 ml of RPMI-1640 containing 10% FBS. The cells were counted and then seeded in 100 mm plates at 1x10^6 cells/dish. When the cultured macrophages reached approximately 70% confluency (2-3 days) they were washed with PBS and RPMI-1640 medium containing 5% FBS and 10 ng/ml LPS was applied (Figure 1). After 24 h of activation with LPS the cells were washed gently with PBS. At this point conditioned medium from confluent fetal dermal fibroblasts was collected and 5 ml was distributed into each dish containing macrophages. The cells were incubated for an additional 24 h, the media were collected, spun down at 600 x g for 10 min and stored at 4° C before TGF-β1 evaluation by ELISA. Each condition was done in duplicate. The cells, washed with PBS, were harvested for total RNA extraction.
Fetal dermal fibroblasts were seeded in 100 mm dishes at 1x10^6 cell/dish. The cells were grown to confluency (2-3 days). The cultures were washed with PBS and fresh medium, either DMEM supplemented with 10% FBS or AIM-V medium (a serum free medium) for serum-free conditions, was applied for 24 h (Figure 1). The medium was collected and combined in order to obtain a homogenous pool of latent TGF-β1. The collection of the medium was done just prior to application in the macrophage assay.
Each measurement was performed in duplicates.

TGF-β1 [1] = assay: mRNA for TGF-β1 in macrophages, Northern blot; format: cell-based, Mouse; conditions: combined treatment of LPS with M6P or DCA
Procedure: (§1) The cells were washed with PBS, followed by addition of the extraction buffer provided with the kit (RNeasy RNA extraction kit). The lysed cells were scraped from the dish and collected in microtubes. Samples were either frozen at -70 °C before analysis or directly assessed following manufacturer protocol. Absorbance at 260 nm and 280 nm was measured and the integrity of RNA was evaluated by denaturing formaldehyde agarose gels stained with ethidium bromide.
Northern blot analysis was carried out as described previously (27). Briefly, total RNA samples (5 µg) were diluted in formaldehyde-MOPS buffer and subjected to electrophoresis in a denaturing 1.2 % Sea Kem GTG agarose gel along with the RNA size markers. RNA was transferred to a nitrocellulose membrane by capillary transfer. The blots were prehybridized for 3 h at 42° C in a solution containing 10% dextran sulfate, 2 x Denhardt's solution, 50% formamide, 5 x SSPE (0.75 M Sodium chloride, 0.05 M sodium phosphate, 0.005 M ethylenediaminetetraacetic acid)/ 0.1% SDS, and 250 µg/ml of sheared salmon testis DNA. Hybridization solution was essentially the same except that ^32P dCTP-labeled DNA probe and 150 µg/ml of salmon testis DNA were included. The hybridization was carried out for 16 h at 42° C. […]

M6P/IGF-II receptor = assay: Expression of M6P/IGF-II receptor mRNA in neonatal fibroblasts, semiquantitative RT-PCR; format: cell-based, human
Procedure: (§2) Human neonatal fibroblasts were seeded in 100 mm dishes at 1 x 10^6 cells/dish. […] In addition, cells were treated with two concentrations of Mannose 1-Phosphate (M1P) (100 and 200 µM) for 24 and 48 h. […] Each treatment was run in duplicates and repetitive analyses were performed.
as §1
The procedure used to transcribe the total RNA was described in detail previously (28). Briefly, the reaction was carried out in a total volume of 25 µl containing 1x reverse transcriptase buffer (50 mM Tris-HCl, pH 8.3, 75 mM KCl, 3 mM MgCl2), 10 mM DTT (Dithiothreitol), 2.5 mM each of dNTPs (Deoxynucleotides), 100 µg/ml of acetylated BSA, 4 units of rRNasin (ribonuclease inhibitor), 200 units of SuperScript ™ RNase H^-Reverse Transcriptase, 0.1 µg of oligo (dT)12-18 and 1 µg of total RNA. Incubation was carried out for 1 h at 42 °C and was terminated by the addition of an equal volume of cold water.
A portion of the first strand cDNA reaction was used in PCR, which was carried out in 25 µl containing 16 mM Tris-HCl, pH 8.3, 50 mM KCl, 1.5 mM MgCl2, 0.01 % gelatin, 200 µM of each dNTPs, 1 µM each sense and antisense oligonucleotides and 2.5 units of AmpliTaq DNA polymerase. Amplification was carried out for 35 cycles. Each cycle consisted of denaturation 1 min at 95°C; annealing at 55°C (optimal for the pair of oligonucleotides used) for 2 min; and elongation at 72°C, 3 min. For the final cycle elongation was 7 min. Reaction products were separated by 2% agarose gel electrophoresis and were visualized by ethidium bromide staining. […] Restriction digests were performed in order to confirm PCR product specificity. Densitometry was used for quantitative analysis of the ethidium bromide stained gels.

TGF-β1 [2] = assay: Expression of TGF-β1 mRNA in neonatal fibroblasts, semiquantitative RT-PCR; format: cell-based, human
Procedure: as §2, §1
(§3) The procedure used to transcribe the total RNA was described in detail previously (28). […]
A portion of the first strand cDNA reaction was used in PCR, which was carried out in 25 µl containing 16 mM Tris-HCl, pH 8.3, 50 mM KCl, 1.5 mM MgCl2, 0.01 % gelatin, 200 µM of each dNTPs, 1 µM each sense and antisense oligonucleotides and 2.5 units of AmpliTaq DNA polymerase. […] Densitometry was used for quantitative analysis of the ethidium bromide stained gels.

TGF-β receptor type I = assay: Expression of TGF-β receptor type I mRNA in neonatal fibroblasts, semiquantitative RT-PCR; format: cell-based, human; conditions: M6P treatment, during the time course (24 and 48 h)
Procedure: as §2, §1, §3
(§4) A portion of the first strand cDNA reaction was used in PCR, which was carried out in 25 µl containing 16 mM Tris-HCl, pH 8.3, 50 mM KCl, 1.5 mM MgCl2, 0.01 % gelatin, 200 µM of each dNTPs, 1 µM each sense and antisense oligonucleotides and 2.5 units of AmpliTaq DNA polymerase. […] Sizes were determined using Q X 174 DNA/Hae III markers. […] Densitometry was used for quantitative analysis of the ethidium bromide stained gels.

M6P/IGF-II receptors = assay: Levels of M6P/IGF-II receptors within wounds treated with M6P; format: in vivo; conditions: 3 days post-wounding
TGase II = assay: mRNA for TGase II in macrophages, RT-PCR with densitometry; format: cell-based; conditions: Mus musculus, Macrophage; macrophages treated with 1 µM hydrocortisone; densitometric analysis of RT-PCR products
Procedure: as §1, §3, §4
In an attempt to identify the mechanism of this inhibition, the level of mRNA was evaluated for TGase II in macrophages treated with 1 µM hydrocortisone.

How did the “Inhibition of TGF-β1 Activation, % control (STD)” value (“Inhibition … % control (STD)” below) (TGF-β1 activation; 50 µM) turn out when `Cl.Cl.NCCCCN` [Putrescine, putrescine-dihydrochloride] was run?
The value was 33.4 (28.8) %.

What about the “Inhibition … % control (STD)” value (TGF-β1 activation; 100 µM) of the same compound?
The value was 80.6 (15.5) %.

And the inhibition at 50 µM (TGF-β1 activation; Mus musculus, 50 µM)?
Its inhibition at 50 µM is 33.4%.

And the inhibition at 100 µM (TGF-β1 activation; Mus musculus, 100 µM)?
Its inhibition at 100 µM is 80.6 ± 15.5%.

For `O=P(O)(O)OC[C@H]1OC(O)[C@@H](O)[C@@H](O)[C@@H]1O` (stereo partly drawn) [M6P, D-mannose 6-phosphate], which “Inhibition … % control (STD)” value (TGF-β1 activation; 50 µM) is on record?
The value was 69.6 (1.7) %.

What about the “Inhibition … % control (STD)” value (TGF-β1 activation; 100 µM) of the same compound?
Its value is 32.9 (11.5) %.

And the “Total TGF-β1 (STD)” value (TGF-β1 activation; LPS + CM serum-free, 100 µM)?
Its value is 1649.8 (71.7) pg/ml.

What about the “Total TGF-β1 (STD)” value (TGF-β1 activation; LPS+CM with serum, 100 µM) of the same compound?
Its value is 2472.6 (374.5) pg/ml.

What about the inhibition at 50 µM (TGF-β1 activation; Mus musculus, 50 µM) of the same compound?
The inhibition at 50 µM was 69.6%.

And the inhibition at 100 µM (TGF-β1 activation; Mus musculus, 100 µM)?
The inhibition at 100 µM was 32.9%.

And the “levels of mRNA for TGF-β1” value (TGF-β1 [1])?
Its value is “remained the same”.

What about the “M6P/IGF II Receptor 24h” value (M6P/IGF-II receptor; M6P 1 µM) of the same compound?
The value was 98.4 (20.6).

What about the “M6P/IGF II Receptor 48h” value (M6P/IGF-II receptor; M6P 1 µM) of the same compound?
The value was 112.8 (21.4).

What about the “M6P/IGF II Receptor 24h” value (M6P/IGF-II receptor; M6P 10 µM) of the same compound?
Its value is 86.1 (3.2).

What about the “M6P/IGF II Receptor 48h” value (M6P/IGF-II receptor; M6P 10 µM) of the same compound?
Its value is 108 (7.1).

What about the “M6P/IGF II Receptor 24h” value (M6P/IGF-II receptor; M6P 50 µM) of the same compound?
The value was 74 (36.6).

And the “M6P/IGF II Receptor 48h” value (M6P/IGF-II receptor; M6P 50 µM)?
Its value is 59.3 (1.4).

And the “M6P/IGF II Receptor 24h” value (M6P/IGF-II receptor; M6P 100 µM)?
The value was 85.4 (25).

And the “M6P/IGF II Receptor 48h” value (M6P/IGF-II receptor; M6P 100 µM)?
Its value is 42.2 (3.2).

And the “M6P/IGF II Receptor 24h” value (M6P/IGF-II receptor; M6P 200 µM)?
Its value is 57.5 (5.2).

And the “M6P/IGF II Receptor 48h” value (M6P/IGF-II receptor; M6P 200 µM)?
Its value is 39.6 (1.3).

What about the “TGF-β1 48 h” value (TGF-β1 [2]; M6P 100 µM, 48h) of the same compound?
The value was 57.5 (15.9).

And the “level of TGF-β receptor type I mRNA” value (TGF-β receptor type I)?
The value was “unchanged”.

And the “levels of the M6P/IGF-II receptors within the wounds” value (M6P/IGF-II receptors)?
Its value is “downregulated”.

`C[C@]12CCC(=O)C=C1CC[C@@H]1[C@@H]2[C@@H](O)C[C@@]2(C)[C@H]1CC[C@]2(O)C(=O)CO` [Hydrocortisone, hydrocortisone] was tested. Which inhibition at 1 µM (TGF-β1 activation; Mus musculus, read-out: Inhibition of TGF-β1, % Control (STD)) did it give?
The inhibition at 1 µM was 64%.

What about the TGase II mRNA level, % of control at 1 µM (TGase II) of the same compound?
Its TGase II mRNA level, % of control at 1 µM is 37.5%.

What does the source list for `CN(C)c1cccc2c(S(=O)(=O)NCCCCCN)cccc12` [DCA, monodansylcadaverine]?
Inhibition of TGF-β1 Activation, % control (STD) (TGF-β1 activation; 100 µM, listed as Damylcadaverine): 18.3 (1.6) %; Total TGF-β1 (STD) (TGF-β1 activation; LPS+CM with serum, 100 µM): 2302 (219.3) pg/ml; inhibition at 100 µM (TGF-β1 activation; Mus musculus, 100 µM): 18.3%; levels of mRNA for TGF-β1 (TGF-β1 [1]): remained the same

Which inhibition at 100 µM (TGF-β1 activation; Mus musculus) does the source give for `O=P(O)(O)O[C@H]1O[C@H](CO)[C@@H](O)[C@H](O)[C@@H]1O` [M1P, alpha-D(+) mannose 1-phosphate] here?
The inhibition at 100 µM was 85.9%.

What about the “M6P/IGF-II receptor mRNA levels” value (M6P/IGF-II receptor; 100 and 200 µM, 24 and 48 h) of the same compound?
The value was “no effects”.

And the “TGF-β1 mRNA levels” value (TGF-β1 [2]; 100 and 200 µM, 24 and 48 h)?
The value was “no effects”.

— patent publication EP0956036B1, “ANTI-FIBROTIC AGENT ASSAY” (ETHICON, INC., priority 1996, dated 1998)
